# Laboratory results published in patent US5424456A, “N-arylalkylderivatives of 2-aminomethyl-2,3-dihydro-1,4-benzodioxine and the process of preparation thereof” (Vyzkumny Ustav Pro Farmacii A Biochemii s.p., priority 1991, dated 1995).
# Tests used:
# α-adrenergic = molecular target: T1, α-adrenergic (Rattus norvegicus, UniProt P23944); assay: α-adrenergic blocking activity, norepinephrine-induced contraction of helically cut rat aortic strip; conditions: 37° C., cumulative doses, read-out: IC50 (concentration causing 50% relaxation)
# T1 construct: helically cut rat aortic strip; from tissue; host or cells: rat aorta (helically cut strip)
# T1 sequence (P23944 1-561): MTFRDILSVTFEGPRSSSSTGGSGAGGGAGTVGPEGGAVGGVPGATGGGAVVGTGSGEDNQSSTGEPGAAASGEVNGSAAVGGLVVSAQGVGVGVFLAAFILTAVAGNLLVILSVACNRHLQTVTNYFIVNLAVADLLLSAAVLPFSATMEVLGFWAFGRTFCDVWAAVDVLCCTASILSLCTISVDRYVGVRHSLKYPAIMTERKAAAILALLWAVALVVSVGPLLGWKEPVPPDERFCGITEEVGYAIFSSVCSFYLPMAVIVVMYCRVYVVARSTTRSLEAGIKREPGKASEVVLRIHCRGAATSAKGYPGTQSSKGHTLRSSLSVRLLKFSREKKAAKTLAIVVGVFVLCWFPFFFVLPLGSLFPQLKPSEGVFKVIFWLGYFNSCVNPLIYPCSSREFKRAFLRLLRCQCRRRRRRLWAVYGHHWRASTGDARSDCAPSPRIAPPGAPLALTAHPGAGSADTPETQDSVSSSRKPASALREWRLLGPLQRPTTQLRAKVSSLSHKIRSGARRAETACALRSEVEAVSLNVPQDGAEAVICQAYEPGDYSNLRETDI
# Protocol: a) The α-adrenergic blocking activity of the compounds was tested using a helically cut rat aortic strip in a Krebs-Henselheit solution at 37° C., bubbled with a mixture of 95% O2 and 5% CO2. Norepinephrine induced contractions were detected isometrically. The compounds were added in cumulative doses and the relaxing activity was expressed in per cents of the maximum norepinephrine contraction.
# blood pressure [1] = assay: Hypotensive activity, pentobarbital anaesthesized dogs; assay type: in vivo, dog; conditions: i.v.
# Excerpt: b) The blood pressure of pentobarbital anaesthesized dogs was registered invasively in arteria femoralis. The average decrease in systolic (SBP) arid diastolic (DBP) blood pressure expressed in per cents of the starting blood pressure level after intravenous and oral administration is shown in Tables 5 and 6.
# calcium channel = molecular target: T2, calcium channel (Rattus norvegicus, UniProt P22002); assay: Calcium channel blocking activity, K+ depolarization-induced contraction of helically cut rat aortic strip; conditions: Krebs-Henselheit solution, 37° C., cumulative doses, read-out: IC50 (50% decrease of contraction of the aortic strip)
# T2 construct: helically cut rat aortic strip; from tissue; host or cells: rat aorta (helically cut strip)
# T2 sequence (P22002 whole entry): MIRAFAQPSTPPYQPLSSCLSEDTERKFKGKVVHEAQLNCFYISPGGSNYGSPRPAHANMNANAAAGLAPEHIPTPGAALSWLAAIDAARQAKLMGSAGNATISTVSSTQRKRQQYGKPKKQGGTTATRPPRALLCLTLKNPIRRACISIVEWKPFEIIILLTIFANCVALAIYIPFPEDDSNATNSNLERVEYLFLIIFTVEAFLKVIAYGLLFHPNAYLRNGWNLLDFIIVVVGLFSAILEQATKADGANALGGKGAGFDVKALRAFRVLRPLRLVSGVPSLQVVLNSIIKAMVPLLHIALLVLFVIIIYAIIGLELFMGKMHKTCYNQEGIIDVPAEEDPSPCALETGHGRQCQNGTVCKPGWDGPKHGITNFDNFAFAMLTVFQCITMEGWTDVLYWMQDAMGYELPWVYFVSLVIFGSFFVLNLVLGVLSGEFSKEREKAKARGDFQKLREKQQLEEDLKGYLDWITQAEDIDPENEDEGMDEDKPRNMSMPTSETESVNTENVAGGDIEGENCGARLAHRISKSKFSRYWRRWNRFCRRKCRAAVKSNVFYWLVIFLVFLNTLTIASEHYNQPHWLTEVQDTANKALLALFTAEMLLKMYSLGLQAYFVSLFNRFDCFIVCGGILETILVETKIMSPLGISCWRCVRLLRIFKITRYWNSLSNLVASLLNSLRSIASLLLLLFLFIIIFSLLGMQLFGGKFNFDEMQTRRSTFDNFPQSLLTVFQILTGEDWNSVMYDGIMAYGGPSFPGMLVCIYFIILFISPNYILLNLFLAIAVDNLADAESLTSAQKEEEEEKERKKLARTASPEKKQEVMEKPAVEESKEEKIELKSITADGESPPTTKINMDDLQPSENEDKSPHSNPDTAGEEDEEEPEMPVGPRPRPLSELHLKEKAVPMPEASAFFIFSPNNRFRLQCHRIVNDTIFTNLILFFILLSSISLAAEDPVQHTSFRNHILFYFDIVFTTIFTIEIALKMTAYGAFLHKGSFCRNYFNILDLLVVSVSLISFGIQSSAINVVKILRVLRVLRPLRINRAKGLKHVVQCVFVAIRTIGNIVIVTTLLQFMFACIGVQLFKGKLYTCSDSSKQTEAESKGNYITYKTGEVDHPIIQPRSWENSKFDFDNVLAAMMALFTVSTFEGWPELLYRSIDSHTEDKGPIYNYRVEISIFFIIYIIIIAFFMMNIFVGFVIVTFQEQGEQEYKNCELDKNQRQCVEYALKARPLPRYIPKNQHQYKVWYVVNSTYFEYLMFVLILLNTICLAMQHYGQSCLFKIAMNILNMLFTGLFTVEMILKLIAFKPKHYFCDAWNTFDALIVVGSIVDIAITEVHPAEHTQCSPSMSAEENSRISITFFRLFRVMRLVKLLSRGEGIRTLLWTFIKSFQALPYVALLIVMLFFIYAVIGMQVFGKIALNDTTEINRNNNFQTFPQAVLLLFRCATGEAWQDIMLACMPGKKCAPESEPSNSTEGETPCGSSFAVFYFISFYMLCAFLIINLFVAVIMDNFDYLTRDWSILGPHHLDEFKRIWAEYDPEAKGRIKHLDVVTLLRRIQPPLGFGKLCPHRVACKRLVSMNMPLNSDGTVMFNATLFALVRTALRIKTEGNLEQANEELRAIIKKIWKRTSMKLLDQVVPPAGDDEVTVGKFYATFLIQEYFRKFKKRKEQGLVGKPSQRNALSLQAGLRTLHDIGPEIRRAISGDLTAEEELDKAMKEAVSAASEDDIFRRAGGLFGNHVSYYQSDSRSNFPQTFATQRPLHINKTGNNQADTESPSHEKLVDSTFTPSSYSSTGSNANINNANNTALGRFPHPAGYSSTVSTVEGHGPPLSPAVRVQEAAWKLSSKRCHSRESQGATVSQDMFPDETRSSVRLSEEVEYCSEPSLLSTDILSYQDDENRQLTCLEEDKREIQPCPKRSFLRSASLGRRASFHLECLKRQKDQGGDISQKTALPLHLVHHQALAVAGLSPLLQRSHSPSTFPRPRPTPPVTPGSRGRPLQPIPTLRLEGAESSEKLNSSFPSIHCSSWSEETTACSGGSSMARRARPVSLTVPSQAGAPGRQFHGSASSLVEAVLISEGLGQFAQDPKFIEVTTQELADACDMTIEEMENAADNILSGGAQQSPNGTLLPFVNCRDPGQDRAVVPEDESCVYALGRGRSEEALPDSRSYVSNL
# T2 sequence (P54290 25-1091 partner): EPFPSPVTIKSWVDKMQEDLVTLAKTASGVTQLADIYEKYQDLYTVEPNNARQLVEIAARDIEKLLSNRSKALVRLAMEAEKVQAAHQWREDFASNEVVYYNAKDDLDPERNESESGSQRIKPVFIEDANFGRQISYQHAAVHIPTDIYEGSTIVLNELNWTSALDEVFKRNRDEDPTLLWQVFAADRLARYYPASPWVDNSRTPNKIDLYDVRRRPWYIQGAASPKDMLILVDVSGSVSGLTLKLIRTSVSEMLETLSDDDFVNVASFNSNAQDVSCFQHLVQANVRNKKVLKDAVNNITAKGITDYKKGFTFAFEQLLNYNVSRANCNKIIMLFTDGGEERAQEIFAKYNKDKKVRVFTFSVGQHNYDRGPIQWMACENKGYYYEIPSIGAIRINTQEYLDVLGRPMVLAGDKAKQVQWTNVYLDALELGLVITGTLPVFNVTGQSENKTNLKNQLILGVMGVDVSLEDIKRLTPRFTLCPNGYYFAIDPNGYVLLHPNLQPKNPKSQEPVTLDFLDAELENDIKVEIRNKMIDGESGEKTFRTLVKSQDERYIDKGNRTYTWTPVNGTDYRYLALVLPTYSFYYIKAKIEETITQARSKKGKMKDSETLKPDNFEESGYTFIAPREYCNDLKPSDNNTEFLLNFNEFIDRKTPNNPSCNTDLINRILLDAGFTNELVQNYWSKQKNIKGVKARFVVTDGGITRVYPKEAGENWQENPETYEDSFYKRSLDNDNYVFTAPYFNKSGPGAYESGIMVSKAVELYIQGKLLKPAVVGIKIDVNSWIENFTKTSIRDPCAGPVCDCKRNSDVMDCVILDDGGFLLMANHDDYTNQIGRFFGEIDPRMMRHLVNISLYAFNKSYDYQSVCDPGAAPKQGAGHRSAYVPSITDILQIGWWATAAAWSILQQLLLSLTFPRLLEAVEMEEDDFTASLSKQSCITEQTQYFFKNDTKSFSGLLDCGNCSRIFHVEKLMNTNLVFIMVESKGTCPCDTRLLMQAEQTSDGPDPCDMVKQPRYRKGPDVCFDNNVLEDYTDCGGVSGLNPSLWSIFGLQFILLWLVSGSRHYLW
# Protocol: The calcium channel blocking activity of the compounds was tested using a helically cut rat aortic strip in Krebs-Henselheit solution at 37° C., bubbled with a mixture of 95% O2 and 5% CO2. The isometrically registered contractions were induced by K^(+). depolarization. The test compounds were applied in a cumulative doses and the vasodilating activity thereof was expressed in calculated concentration of the test compound, causing 50% decrease of contraction of the aortic strip (IC50).
# blood pressure [2] = assay: Hypotensive activity, pentobarbital anaesthesized rabbits; assay type: in vivo, rabbit; conditions: i.v.
# Excerpt: a) The blood pressure of pentobarbital anaesthesized rabbits was registered invasively in arteria femoralis. The average decrease in systolic (SBP) and diastolic (DBP) blood pressure expressed in per cents of the starting blood pressure level after intravenous and oral administration is shown in Tables 3 and 4.
# [3] = compared to Verapamil; cited from earlier work
# α-adrenergic receptors = conditions: cited from earlier work
# [4] = 0.4 mg/kg, value 1 of 5 (heads 5/30/60/180 min; probably 1 min)
# [5] = 0.4 mg/kg, value 2 of 5 (heads 5/30/60/180 min; probably 5 min)
# [6] = 0.4 mg/kg, value 3 of 5 (heads 5/30/60/180 min; probably 30 min)
# [7] = 0.4 mg/kg, value 4 of 5 (heads 5/30/60/180 min; probably 60 min)
# [8] = 0.4 mg/kg, value 5 of 5 (heads 5/30/60/180 min; probably 180 min)
# [9] = 4.0 mg/kg, value 1 of 5 (heads 5/30/60/180 min; probably 1 min)
# [10] = 4.0 mg/kg, value 2 of 5 (heads 5/30/60/180 min; probably 5 min)
# [11] = 4.0 mg/kg, value 3 of 5 (heads 5/30/60/180 min; probably 30 min)
# [12] = 4.0 mg/kg, value 4 of 5 (heads 5/30/60/180 min; probably 60 min)
# [13] = 4.0 mg/kg, value 5 of 5 (heads 5/30/60/180 min; probably 180 min)
structure (smiles),measurement,setting,value
"CC(C)C(C#N)(CCCNCC1COc2ccccc2O1)c1ccccc1 (racemic) [VUFB 18087, 5-(2,3-dihydro-1,4-benzodioxin-2-ylmethylamino)-2-phenyl-2-isopropyl valeronitrile]",IC50,α-adrenergic,76 µM
same,decrease in diastolic blood pressure (DBP),blood pressure [1]; [4],-37 per cents
same,decrease in systolic blood pressure (SBP),blood pressure [1]; [4],-33 per cents
same,decrease in diastolic blood pressure (DBP),blood pressure [1]; [5],-27 per cents
same,decrease in systolic blood pressure (SBP),blood pressure [1]; [5],-29 per cents
same,decrease in diastolic blood pressure (DBP),blood pressure [1]; [6],-27 per cents
same,decrease in systolic blood pressure (SBP),blood pressure [1]; [6],-29 per cents
same,decrease in diastolic blood pressure (DBP),blood pressure [1]; [7],-13 per cents
same,decrease in systolic blood pressure (SBP),blood pressure [1]; [7],-19 per cents
same,decrease in diastolic blood pressure (DBP),blood pressure [1]; [8],-13 per cents
same,decrease in systolic blood pressure (SBP),blood pressure [1]; [8],-4 per cents
same,decrease in diastolic blood pressure (DBP),blood pressure [1]; [9],-62 per cents
same,decrease in systolic blood pressure (SBP),blood pressure [1]; [9],-49 per cents
same,decrease in diastolic blood pressure (DBP),blood pressure [1]; [10],-31 per cents
same,decrease in systolic blood pressure (SBP),blood pressure [1]; [10],-32 per cents
same,decrease in diastolic blood pressure (DBP),blood pressure [1]; [11],-31 per cents
same,decrease in systolic blood pressure (SBP),blood pressure [1]; [11],-31 per cents
same,decrease in diastolic blood pressure (DBP),blood pressure [1]; [12],-26 per cents
same,decrease in systolic blood pressure (SBP),blood pressure [1]; [12],-27 per cents
same,decrease in diastolic blood pressure (DBP),blood pressure [1]; [13],-26 per cents
same,decrease in systolic blood pressure (SBP),blood pressure [1]; [13],-22 per cents
same,IC50,calcium channel,8.5 µM
same,decrease in diastolic blood pressure (DBP),"blood pressure [2]; 0.4 mg/kg, 1 min",-32 per cents
same,decrease in systolic blood pressure (SBP),"blood pressure [2]; 0.4 mg/kg, 1 min",-10 per cents
same,decrease in diastolic blood pressure (DBP),"blood pressure [2]; 0.4 mg/kg, 5 min",-16 per cents
same,decrease in systolic blood pressure (SBP),"blood pressure [2]; 0.4 mg/kg, 5 min",-19 per cents
same,decrease in diastolic blood pressure (DBP),"blood pressure [2]; 0.4 mg/kg, 30 min",-18 per cents
same,decrease in systolic blood pressure (SBP),"blood pressure [2]; 0.4 mg/kg, 30 min",-17 per cents
same,decrease in diastolic blood pressure (DBP),"blood pressure [2]; 0.4 mg/kg, 60 min",-16 per cents
same,decrease in systolic blood pressure (SBP),"blood pressure [2]; 0.4 mg/kg, 60 min",-17 per cents
same,decrease in diastolic blood pressure (DBP),"blood pressure [2]; 0.4 mg/kg, 180 min",-8 per cents
same,decrease in systolic blood pressure (SBP),"blood pressure [2]; 0.4 mg/kg, 180 min",-14 per cents
same,decrease in diastolic blood pressure (DBP),"blood pressure [2]; 4.0 mg/kg, 1 min",-58 per cents
same,decrease in systolic blood pressure (SBP),"blood pressure [2]; 4.0 mg/kg, 1 min",-45 per cents
same,decrease in diastolic blood pressure (DBP),"blood pressure [2]; 4.0 mg/kg, 5 min",-43 per cents
same,decrease in systolic blood pressure (SBP),"blood pressure [2]; 4.0 mg/kg, 5 min",-45 per cents
same,decrease in diastolic blood pressure (DBP),"blood pressure [2]; 4.0 mg/kg, 30 min",-29 per cents
same,decrease in systolic blood pressure (SBP),"blood pressure [2]; 4.0 mg/kg, 30 min",-30 per cents
same,decrease in diastolic blood pressure (DBP),"blood pressure [2]; 4.0 mg/kg, 60 min",-29 per cents
same,decrease in systolic blood pressure (SBP),"blood pressure [2]; 4.0 mg/kg, 60 min",-31 per cents
same,decrease in diastolic blood pressure (DBP),"blood pressure [2]; 4.0 mg/kg, 180 min",-32 per cents
same,decrease in systolic blood pressure (SBP),"blood pressure [2]; 4.0 mg/kg, 180 min",-28 per cents
COc1ccc(CCN(C)CCCC(C#N)(c2ccccc2C)C(C)C)cc1OC (centres unmarked) [Mepamil],negative inotropic activity,[3],lower negative inotropic activity
c1ccc2c(c1)OCC(CN1CCCCC1)O2 (centres unmarked) [Piperoxan],α-adrenergic receptor blocking,α-adrenergic receptors,block the α-adrenergic receptors in a competitive manner
